Values quoted from earlier work in US20120148652A1, “METHOD FOR INCORPORATING MEDICINE INTO A PLANT” (EARTH CHEMICAL CO., LTD., priority 2009, published 2012).

Conditions: 20° C., reference value

Row | SMILES | vapor pressure
1 | CC(C)=CC1C(C(=O)OC(C#N)c2cccc(Oc3ccccc3)c2)C1(C)C (stereo not drawn) [d,d-T-cyphenothrin] | < 1.33×10^−7 hPa
2 | CC1(C)[C@H](C=C(Cl)Cl)[C@H]1C(=O)OCc1c(F)c(F)cc(F)c1F [transfluthrin, Transfluthrin] | 4.0×10^−6 hPa
